# Data: US5968526A, “T cell epitopes of the major allergens from Dermatophagoides (house dust mite)” (Immulogic Pharamaceutical Corporation, priority 1995, dated 1999)
# Tests used:
# Format in all cases: cell-based, human
# [1] = system: T cell lines primed in vitro with Der p I; assay: T cell proliferation with fine map and modified Group I peptides (Example XIV); conditions: for positive T cell responses, modified peptides: 18 T cell lines, affinity purified Der p I primed, FIG. 31a
# Experimental: Long term T cell lines were established by stimulation of 2×10^6 PBL/ml in bulk cultures of complete medium (RPMI-1640, 2 mM L-glutamine, 100 U/ml penicillin/streptomycin, 5×10^-5 M 2-mercaptoethanol, and 10 mM HEPES supplemented with 5% heat inactivated human AB serum) with 30 μg/ml of purified native Der p I or Der p II for 5-6 days at 37° C. in a humidified 5% CO2 incubator to select for house dust mite protein allergen reactive T cells. This amount of priming antigen was determined to be optimal for the activation of T cells from house dust mite allergic patients. Viable cells were purified by LSM centrifugation and cultured in complete medium supplemented with 5 units recombinant human IL-2/ml and 5 units recombinant human IL-4/ml for up to three weeks until the cells no longer responded to lymphokines and were considered "rested". The ability of the T cells to proliferate to selected peptides, purified Der p I or Der p II, or positive (PHA) controls or negative controls (medium only) was then assessed. For assay, 2×10^4 rested cells were restimulated in the presence of 2×10^4 autologous Epstein-Barr virus (EBV)-transformed B cells (prepared as described below) (gamma-irradiated with 25,000 RADS) or with 5×10^4 autologous PBMs (gamma-irradiated with 3500 RADS), with 2-50 μg/ml of purified native Der p I or Der p II in a volume of 200 μl complete medium in duplicate or triplicate wells in 96-well round bottom plates for 3 days. Each well then received 1 μCi tritiated thymidine for 16-20 hours. The counts incorporated were collected onto glass fiber filter mats and processed for liquid scintillation counting. […] The titrations were used to optimize the dose of peptides in T cell assays.
# The maximum response in a titration of each peptide is expressed as the stimulation index (S.I.). The S.I. is the counts per minute (CPM) incorporated by cells in response to peptide, divided by the CPM incorporated by cells in medium only. […] The positive results were used in calculating mean stimulation indices for each peptide for the individual patient tested.
# The above procedure was followed with 18 patients in the studies using peptides derived from Der p I and Der f I (FIGS. 31a-b), and 21 patients in the studies with Der p II peptides (FIGS. 32a-b). Individual patient results were used in calculating the mean S.I. for each peptide if the patient responded to the Der p I or Der p II protein at an S.I. of 2.0 or greater and the patient responded to at least one peptide derived from a house dust mite allergen at an S.I. f 2.0 or greater. A summary of positive experiments from the patients tested is shown in FIGS. 32a and 32b and FIGS. 33a and 33b. The bars represent the positivity index. […] In parenthesis above each bar are the mean stimulation indices for each peptide or protein for the group of patients tested.
# Autologous EBV-transformed cell lines were γ-irradiated with 25,000 Rad and used as antigen presenting cells in secondary proliferation assays and secondary bulk stimulations. These EBV-transformed cell lines were made by incubating 5×10^6 PBL with 1 ml of B-59/8 Marmoset cell line (ATCC CRL1612, American Type Culture Collection, Rockville, Md.) conditioned medium in the presence of 1 μg/ml phorbol 12-myristate 13-acetate (PMA) at 37° C. for 60 minutes in 12×75 mm polypropylene round-bottom Falcon snap cap tubes (Becton Dickinson Labware, Lincoln Park, N.J.). These cells were then diluted to 1.25×10^6 cells/ml in RPMI-1640 as described above except supplemented with 10% heat-inactivated fetal bovine serum and cultured in 200 μl aliquots in flat bottom culture plates until visible colonies were detected. They were then transferred to larger wells until the cell lines were established.
# [2] = system: T cell lines primed in vitro with Der p II; assay: T cell proliferation with fine map and modified Group II peptides (Example XIV); conditions: for positive T cell responses, modified peptides: 21 T cell lines, Der p II primed, FIG. 32a; for T cell response, Group II peptides: FIGS. 32a-b
# In short: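 Bulk T cell lines primed with 30 μg/ml native Der p I or Der p II for 5-6 days, rested with IL-2/IL-4, then restimulated 3 days with peptides plus irradiated autologous EBV-B cells or PBMs. Proliferation by 16-20 h [3H]thymidine uptake; stimulation index = peptide CPM / medium CPM, averaged over responding patients.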
# [3] = system: T cell lines primed in vitro to Der p II; assay: secondary proliferation of Der p II-primed T cell lines (Examples VIII, X, XI); conditions: Der p II T-cell map and analogs
# In short: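 PBMC from house dust mite-allergic patients primed in vitro with native or recombinant Der p II at 20 μg/ml (or recombinant at 3 μg/ml), with x-irradiated (3500 Rads) autologous PBMC as antigen-presenting cells. Lines then challenged with Der p II-derived peptides; proliferation expressed as S.I., ranked sum scoring top three responses 3, 2, 1.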
# [4] = system: PBMC from mite-allergic patient; assay: primary T cell (PBMC) proliferation, mite-allergic patient, tritiated thymidine; conditions: medium 1071 ± 30
# In short: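 Ficoll-purified PBMC (5×10^4/well, triplicate) from one mite-allergic donor cultured 7 days at 37 °C with graded concentrations of purified Der p I, Der p II or their peptides in RPMI-1640 plus 5% human AB serum. 1 μCi ^3H-thymidine added for 16 h; CPM counted, stimulation index = antigen CPM/medium-only CPM.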
substance,measurement,setting,value
DP I-23.31: modified Der p I peptide; unique peptide (DEEGVVQESYYRYVAREQSCRRPNAE),"positive T cell responses, modified peptides",[1],all eighteen T cell lines responded positively
same,"T cell response, Group I peptides",[1]; FIGS. 31a-b,positive T cell studies
"DF I-22.2: VAATESAYLAYRNTSLDLSEQELVD, amino acid residues 40-64 of Der f I","T cell response, Group I peptides",[1]; FIGS. 31a-b,positive responses
DP II-20.9: modified Der p II peptide; unique peptide (DQVDVKDCANHEIKKVLVPGCHGSE),"positive T cell responses, modified peptides",[2],all 21 T cell lines responded positively
same,"T cell response, Group II peptides",[2],positive T cell studies
DP I-21.2: Der p I peptide; unique peptide (SINGNAPAEIDLRQMRTVTPIRMQ),"T cell response, Group I peptides",[1]; FIGS. 31a-b,positive response
same,"positivity index, comparison",[1]; FIGS. 31a-b,"higher positivity index then either of the overlapping peptides, DP I-1 and DP I-2"
DP II-22: QLEAVFEANQNTKTAKIEIKASIDGLEV,T-cell reactivity (DPII-22 series development),[3],exhibits most of the reactivity found in the individual peptides
same,"T cell response, Group II peptides",[2],positive T cell studies
DP I-3: Der p I peptide (TVTPIRMQGGCGSCWAFSGVAATESAYLA),CPM ± S.D.,[4]; 10 μg/ml,2608 ± 52 CPM
same,CPM ± S.D.,[4]; 30 μg/ml,1561 ± 13 CPM
same,CPM ± S.D.,[4]; 100 μg/ml,5252 ± 67 CPM
"DP I-1: Der p I peptide, amino acid residues 1-20 (TNACSINGNAPAEIDLRQMR)",CPM ± S.D.,[4]; 10 μg/ml,1099 ± 48 CPM
same,CPM ± S.D.,[4]; 30 μg/ml,3527 ± 73 CPM
same,CPM ± S.D.,[4]; 100 μg/ml,2746 ± 81 CPM
same,"T cell response, Group I peptides",[1]; FIGS. 31a-b,positive response
DP II-22.14: DKELEAVFEANQNTKTAKAE; unique peptide,T-cell reactivity (DPII-22 series development),[3],"almost the same T-cell reactivity as the ""parent"" peptide"
same,"positive T cell responses, modified peptides",[2],all 21 T cell lines responded positively
same,"T cell response, Group II peptides",[2],positive T cell studies
DP I-26.6: modified Der p I peptide; unique peptide (DEGIKDLDAFRHYDGRTIIQRDNGYE),"positive T cell responses, modified peptides",[1],all eighteen T cell lines responded positively
same,"T cell response, Group I peptides",[1]; FIGS. 31a-b,positive T cell studies
